Experimental data from patent US20230227474A1, “COMPOSITIONS AND METHODS FOR CORRECTION OF ABERRANT SPLICING” (SKYHAWK THERAPEUTICS, INC., priority 2019, published 2023).
Read-outs that look alike come from different tables or passages of the source.

What was measured:
[1] = system: Huntingtin (HTT) transcripts; test: Quantitative Splicing Assay (HTT); type: cell-based; settings: Homo sapiens, GM04724 (CAG 70/20) Huntington's disease patient lymphoblasts, 24 h
Experimental: GM04724 (CAG 70/20) Huntington's disease patient lymphoblasts (Coriell) are plated in 96-well v-bottom plates at 50,000 cells/well. Immediately after plating, cells are dosed with compound for 24 h at concentrations ranging from 2.5 uM to 0.15 nM (0.1% DMSO). Treated cells are lysed and cDNA synthesized using the Fast Advanced Cells-to-Ct kit (Thermofisher A35378) according to the manufacturer's instructions. 2 uL of each cDNA are used in qPCR reactions to confirm the compound-induced inclusion of a cryptic exon within intron 49 of the Huntingtin (HTT) transcripts. The qPCR reactions are prepared in 384-well plates in 10 uL volume, using TaqMan™ Fast Advanced Master Mix [ThermoFisher; 4444965] with primers and probes shown in the table below. Reactions are run in a Quant Studio 6 qPCR instrument with default settings.

mHTT protein = test: mHTT Protein Assay (2B7-MW1, MSD); type: cell-based, human; settings: GM04724 (CAG 70/20) Huntington's disease patient lymphoblast cells, 48 hours, read-out: HTT Potency - Protein: EC50 mHTT (average)
Experimental: Compounds are tested on GM04724 (CAG 70/20) Huntington's disease patient lymphoblast cells at doses ranging from 10 μM to 0.6 nM. 4,500 cells/well are seeded in 384 well plates. One plate replica is carried out for parallel viability testing by CellTiter Glo (CTG). Compounds are incubated for 48 hours. mHTT protein levels are assessed by the 2B7-MW1 assay via Mesoscale Discovery (MSD) as previously reported (Macdonald et al., 2014). The antibody pair is comprised of previously characterized monoclonals (2B7 and MW1) interrogating two regions for HTT conformation and biological properties: the N17 domain and the polyQ domain (Baldo et al., 2012; Ko et., 2001). 2B7-MW1 is dependent on subject/animal specific levels of HTT at the time of treatment. 2B7-MW1 is dependent on polyQ expansion (e.g., the higher the expansion the higher the signal) and on mHTT size (e.g., a similar polyQ will give higher signal with smaller HTT size). The viability readout is carried out by CTG according to the manufacturer's instructions. The results are show in Table B-5.

SMN protein = test: SMN Protein Assay (MSD); type: cell-based, human; settings: SMA patient fibroblasts (GM03813), 48 hours, read-out: SMN2 Potency- Protein: Protein FL EC50 (average)
Experimental: Compounds are tested on spinal muscular atrophy (SMA) patient fibroblasts (GM03813, Coriell) at doses ranging from 2.5 μM to 0.6 nM. 7000 cells/well are seeded in 96-well plates. Compounds are incubated for 48 hours and the cells are lysed with 100 μL of lysis buffer. 20 μL of lysate is used for SMN protein measurement by Mesoscale Discovery (MSD) assay developed by PharmOptima (Michigan). A standard curve prepared with SMN protein ranging from […] is used in each MSD plate to calculate the absolute SMN protein amount in each sample.

SMN2 = test: Quantitative Splicing Assay (SMN); type: cell-based; settings: Homo sapiens, Fibroblast, SMA patient fibroblasts (GM03813), 24 h
Experimental: Spinal muscular atrophy (SMA) patient fibroblasts (GM03813, Coriell) are plated in 96-well plates at 50,000 cells/well. Immediately after plating, cells are dosed with compounds for 24 h at concentrations ranging from 2.5 μM to 0.6 nM (0.1% DMSO). Treated cells are lysed and cDNA synthesized using the Fast Advanced Cells-to-Ct kit (Thermofisher A35378) according to the manufacturer's instructions. 2 μL of each cDNA are used in qPCR reactions. The qPCR reactions are prepared in 384-well plates in 10 μL volume, using TaqMan™ Fast Advanced Master Mix (ThermoFisher; 4444965) with primers and probes shown in the table below. Reactions are run in a Quant Studio 6 qPCR instrument with default settings.

SMILES	EC50 ([1]; qPCR HTTcryp49b (cryptic exon within intron 49), read-out: HTT Potency - Splicing: E49b EC50 (average))	EC50 ([1]; qPCR HTTex49_50, read-out: HTT Potency - Splicing: E49-50 EC50 (average))	EC50 (mHTT protein)	EC50 (SMN protein)	EC50 (SMN2; qPCR SMN FL, read-out: SMN2 Potency- Splicing: Splicing FL EC50 (average))	IC50 (SMN2; qPCR SMN Δ7, read-out: SMN2 Potency- Splicing: Splicing D7 IC50 (average))
Cn1cc(-c2ccc(-c3cc4c(nn3)N([C@@H]3C[C@H]5CC[C@@H](C3)N5)CCC4)c(O)c2)cn1 [Compound 2, 2-(8-((1R,3s,5S)-8-azabicyclo[3.2.1]octan-3-yl)-5,6,7,8-tetrahydropyrido[2,3-c]pyridazin-3-yl)-5-(1-methyl-1H-pyrazol-4-yl)phenol]	0.01 to 15 nM	0.01 to 15 nM	0.01 to 15 nM	0.01 to 15 nM	16 to 50 nM	0.01 to 15 nM
Oc1cc(-n2ccnc2)ccc1-c1cc2c(nn1)N([C@@H]1C[C@H]3CC[C@@H](C1)N3)CCO2 [Compound 3, 2-(8-((1R,3s,5S)-8-azabicyclo[3.2.1]octan-3-yl)-7,8-dihydro-6H-pyridazino[4,3-b][1,4]oxazin-3-yl)-5-(1H-imidazol-1-yl)phenol]	–	–	501 to 10000 nM	501 to 10000 nM	–	–
Oc1cc(-c2cn[nH]c2)ccc1-c1cc2c(nn1)N([C@@H]1C[C@H]3CC[C@@H](C1)N3)CCO2 [Compound 1, 2-(8-((1R,3s,5S)-8-azabicyclo[3.2.1]octan-3-yl)-7,8-dihydro-6H-pyridazino[4,3-b][1,4]oxazin-3-yl)-5-(1H-pyrazol-4-yl)phenol]	–	–	501 to 10000 nM	501 to 10000 nM	–	–
